From patent publication US7667052B2 (Eisai R&D Management Co., Ltd., priority 2003, dated 2010)
Like-named read-outs stand apart in the source and are kept apart here.

Tests used:
[1] = tested on: P388 mouse leukemia cell; settings: Seki-Asano M. et al, J. Antibiotics Vol. 47, 1395-1401, 1994; cited from earlier work
[2] = tested on: human breast cancer BSY-1 cell; assay: Solid cancer proliferation suppressing action, subcutaneous transplant; format: in vivo, mice; settings: 10 mg/kg once intravenous
Procedure: In order to study solid cancer proliferation suppressing action of 11107B in vivo, human breast cancer BSY-1 cell was transplanted to the subcutaneous body sides of mice. The animals were grouped so that the average of the volumes of the respective groups became uniform, when it reached about 100 mm^3. Control group was made as 10 mice and 11107B-administering groups were made as 5 mice. 11107B was administrated for the 11107B-administering groups once by intravenous injection so as to be 10 mg/kg, and a vehicle was administered to the control group. The tumor volumes on the fifth day, eighth day, 12th day and 15th day were measured, and relative tumor volumes were determined setting the tumor volume at the initiation of administration as 1.

[3] = tested on: VEGF production in U251 human glioma cell; assay: VEGF production suppressing action under low oxygen, ELISA; format: cell-based; settings: for VEGF production suppression, in words: U251, low oxygen stimulation
Procedure: U251 human glioma cell cultured in DULBECCO-modified eagle medium (DMEM; manufactured by SIGMA Co., Ltd.) containing 10% fetal calf serum, penicillin (100 unit/ml) and streptomycin (100 μg/ml) was dispensed in 96-well plates by 4×10^4 cells/well. After culturing at 37° C. overnight in a CO2 incubator (5% CO2), the media were removed, and 180 μl of the above-mentioned incubation solution was charged. After adding 20 μL of the above-mentioned incubation solution containing the test compound diluted with 3-fold succession, they were incubated in a low oxygen (2% O2) incubator for 18 hours. The supernatants thereof were measured by an ELISA kit (Immunobiology Research Institute).
Concentration at which the amount of VEGF expressed by low oxygen stimulation was suppressed to 50% (IC50 value) was determined and results are shown in Table 9. […] The activities of 11107F and 11107G were very weak.

[4] = tested on: transcription from VEGF promoter; assay: VEGF transcription-suppressing activity, VEGF-PLAP reporter in U251/1-8 cell; format: cell-based; settings: Homo sapiens, U-251, U251/1-8 cell, PLAP activity, low oxygen 18 hours
How it was run: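 U251 glioma clone stably carrying a ~2.3 kb human VEGF promoter–secreted PLAP reporter, 4×10^4 cells/well, exposed to 3-fold dilutions of compound for 18 h under low oxygen. Supernatant PLAP read by chemiluminescence at pH 10.0; IC50 = 50% suppression, normoxia 0%, hypoxia 100%.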

[5] = Solubility (physico-chemical properties of the 11107 analogues); settings: in dimethylsulfoxide, pyridine, methanol, acetone and water

## CCC(OC)C(C)C1OC1C(O)C(C)/C=C/C=C(\C)C1OC(=O)CC(O)CCC(C)(O)C(OC(C)=O)/C=C/C1C (stereo not shown) [FD895]
[1]
  effect in an animal experiment using P388 mouse leukemia cell: ineffective

## CCC(O)C(C)C1OC1CC(C)/C=C/C=C(\C)C1OC(=O)CC(O)CCC(C)(O)C(OC(C)=O)/C=C/C1C (stereo not shown) [11107 B]
[2]; day 1 after the administration (volume at initiation of administration set as 1)
  relative tumor volume: 1
[2]; day 5 after the administration
  relative tumor volume: 1.08
[2]; day 8 after the administration
  relative tumor volume: 1.28
[2]; day 12 after the administration
  relative tumor volume: 1.40
[2]; day 15 after the administration
  relative tumor volume: 1.70
[3]; U251, low oxygen (2% O2) incubator 18 hours
  VEGF production suppressing action: IC50: 0.8 ng/mL

## CCC(O)C(C)C1OC1CC(C)(O)/C=C/C=C(\C)C1OC(=O)CC(O)CCC(C)(O)C(OC(C)=O)/C=C/C1C (stereo not shown) [11107D]
[3]
  VEGF production suppression, in words: strong successive to 11107B
[4]; read-out: IC50 values of VEGF transcription-suppressing activity (range given)
  IC50: 1 to 100 nM
[4]; read-out: VEGF transcription suppressing activity (IC50: nM)
  IC50: 6.6 nM
[5]
  Solubility: soluble in dimethylsulfoxide, pyridine, methanol and acetone, and slightly soluble in water

## CCC(O)C(C)(O)C1OC1CC(C)/C=C/C=C(\C)C1OC(=O)CC(O)CCC(C)(O)C(O)/C=C/C1C (stereo not shown) [11107G]
[3]
  VEGF production suppression, in words: very weak
[5]
  Solubility: soluble in dimethylsulfoxide, pyridine, methanol and acetone, and slightly soluble in water
